The source of these data is US5763464A, “Retroviral agents containing anthranilamide, substituted benzamide and other subunits, and methods of using same” (The United States of America as represented by the …, priority 1995, dated 1998).

In data set [1] the test system is CEM cells. Nature of the data set: Toxicity (IC50) in CEM cells, soluble formazan assay.
Data set [2] can be described thus: in vitro. Conditions: human, cem cells.
In data set [3] the test system is HIV-1 (CEM cells chronically infected with HIV-1). Put plainly: Anti-retroviral activity in CEM cells chronically infected with HIV-1, soluble formazan assay. Conditions: Human immunodeficiency virus 1, CCRF-CEM. In kind it is cell-based. Here is the method:
Using the soluble formazan assay described by Weislow et al. (J. Nat'l. Cancer Inst., 81, 577-586 (1989)), CEM cells chronically infected with HIV-1 were used to assay the anti-retroviral activity of test compounds described herein. The concentration of compound that inhibits 50% of viral activity (EC50; determined as described in Weislow et al. (1989), supra) and the inhibition constant (Ki, as defined in Example 7) for the compound were determined.

The test system of data set [4] is HIV-1. Conditions: cited from earlier work.
The nature of data set [5]: Toxicity (IC50) in CEM cells, soluble formazan assay. Conditions: human, cem cells.
Data set [6] relates to α-1 acid glycoprotein. Nature of the data set: In vitro activity in the presence of α-1 acid glycoprotein.
Data set [7] concerns the target T1, HIV-1 protease (wild-type, WT) (Human immunodeficiency virus type 1 group M subtype B, UniProt P04585).
T1 construct: purified HIV-1 protease (wild-type, WT)
Put plainly: biochemical. Here is the method:
The inhibition constants (Ki) for the compounds of the above examples were determined using purified HIV-1 protease (wild-type, WT) (Tables I, II and III). Ki is an inhibition constant of a given compound as derived by enzyme kinetics. A low Ki represents a high affinity of the compound for the enzyme, i.e., tight binding or low dissociation. Inhibition of the cleavage was assayed using a fluorogenic substrate available from Molecular Probes, Inc., Eugene, Oreg., and described in Kageyama et al., Antimicrob. Agents. Chemother., 37, 272 (1993), and a fluorogenic substrate available from Bachem California, Torrance, Calif., and described in Kageyama et al. (1993), supra. Percent inhibition is the percentage inhibition of an enzyme's activity by a given compound at a given concentration.

Setting [8] is: comparison table, read-out: EC50.
The mark [9] stands for this setting: comparison table, literature values by footnote.
Setting [10] is: Table I, unit inferred, read-out: Ki.

Entries after “also recorded” stand apart in the source; their conditions may differ. Like-named read-outs stand apart in the source and are kept apart here.

On to `CC(C)[C@H](NC(=O)N(C)Cc1ccccn1)C(=O)N[C@@H](Cc1ccccc1)[C@H](O)[C@H](O)[C@H](Cc1ccccc1)NC(=O)[C@@H](NC(=O)N(C)Cc1ccccn1)C(C)C` [A-77003, reference compound], for which, in data set [1] (Homo sapiens, CCRF-CEM), the IC50 – broadly, the concentration that inhibits the measured activity by half – is above 10000 nM. For the same molecule, in data set [2], the selectivity ratio is above 71. Also, the EC50 (as a rule, the midpoint of the concentration-response curve) in data set [3] (setting [8]) was 140 nM; in data set [4] (Example 13, literature values), 200 nM.
Take `CC(C)C(NC(=O)OCc1ccccc1)C(=O)N[C@@H](Cc1ccccc1)[C@@H](O)[C@@H](O)[C@H](Cc1ccccc1)NC(=O)c1ccccc1NC(=O)OCc1ccccn1` (stereo partly shown) [DN-14]: in data set [1] (Example 13), the “toxicity (from IC50/EC50)” value is “not toxic”. Moreover, the IC50 in data set [1] (Example 13, unit inferred) is above 100000 nM; in data set [1] (Homo sapiens, CCRF-CEM), above 100000 nM; in data set [1] (comparison table), above 100000 nM. The selectivity ratio in data set [5] is above 16700. Further, the EC50 amounted to 6.5 nM in data set [3] (Example 13, CEM cells) and 6 nM in data set [3] (comparison table). The “in vitro activity in presence of α-1 acid glycoprotein” value in data set [6] is listed as “not affected by the presence of α-1 acid glycoprotein; also recorded: unaffected in the presence of α-1 acid glycoprotein”.
Consider `CC(C)(C)NC(=O)[C@@H]1CN(Cc2cccnc2)CCN1C[C@@H](O)C[C@@H](Cc1ccccc1)C(=O)N[C@H]1c2ccccc2C[C@H]1O` [Indinavir], for which the EC50 in data set [4] (setting [9]) was 50 nM.
In the case of `CSC[C@H](NC(=O)COc1cccc2cnccc12)C(=O)N[C@@H](Cc1ccccc1)[C@H](O)C(=O)N1CSC[C@H]1C(=O)NC(C)(C)C` [KNI-272, reference compound], the IC50 in data set [1] (Homo sapiens, CCRF-CEM) was above 100000 nM. In addition, in data set [2], the selectivity ratio was above 3570. Further, the 50% effective concentration (EC50) turned out to be 4.2 nM in data set [3] (Example 13, CEM cells, read-out: EC50) and 28 nM in data set [3] (setting [8]).
With `Cc1c(O)cccc1C(=O)N[C@@H](Cc1ccccc1)[C@@H](O)C[C@H](Cc1ccccc1)NC(=O)c1ccccc1NC(=O)OCc1ccccn1` [LL-82, (2S,3S,5S)-2-[N-[(3-hydroxy-2-methylphenyl)carbonyl]amino]-5-[N-[N-[(2-pyridinylmethoxy)carbonyl]anthranilyl]amino]-1,6-diphenyl-3-hydroxy hexane], the IC50 in data set [1] (Homo sapiens, CCRF-CEM) amounted to 40000 nM. Moreover, the response in data set [3] (Table III) was half-maximal at 33 nM (EC50). In data set [7], the inhibition constant (Ki) (commonly a dissociation constant, usually derived from enzyme kinetics or from competition with a known ligand) worked out at 0.06 ± 0.018 nM.
In data set [1] (Homo sapiens, CCRF-CEM), `O=C(N[C@@H](Cc1ccccc1)C[C@H](O)[C@H](Cc1ccccc1)NC(=O)O[C@H]1CCOC1)O[C@H]1CCOC1` [RS-194] yielded an IC50 above 50000 nM. This molecule returned a concentration giving a half-maximal response (EC50) in data set [3] (Table I) of 6500 nM. Also, the affinity in data set [7], expressed as Ki, was 1.68 nM.
Take `Cc1c(O)cccc1C(=O)N[C@@H](Cc1ccccc1)[C@@H](O)[C@@H](O)[C@H](Cc1ccccc1)NC(=O)OC(C)(C)C` [RS-199]: the IC50 in data set [1] (Homo sapiens, CCRF-CEM) is above 50000 nM. For the same molecule, the EC50 in data set [3] (Table I, read-out: EC50) stood at 1300 nM. In data set [7] (setting [10]), the Ki turned out to be 0.66 nM.
`O=C(N[C@@H](Cc1ccccc1)[C@H](O)[C@H](O)[C@H](Cc1ccccc1)NC(=O)O[C@H]1CCOC1)O[C@H]1CCOC1` [RS-205] registered an IC50 in data set [1] (Homo sapiens, CCRF-CEM) above 150000 nM. In addition, in data set [3] (Table I), the response was half-maximal at 16000 nM (EC50). The molecule further yielded a Ki in data set [7] of 4.6 nM.
In turn, `Cc1c(O)cccc1C(=O)N[C@@H](Cc1ccccc1)[C@@H](O)C[C@H](Cc1ccccc1)NC(=O)OC(C)(C)C` [RS-208, (2S,3S,5S)-2-[N-[(3-hydroxy-2-methylphenyl)carbonyl]amino]-5-[N-(tert-butyloxycarbonyl)amino]-1,6-diphenyl-3-hydroxy hexane] displayed an IC50 in data set [1] (Homo sapiens, CCRF-CEM) of 23000 nM. Also, the EC50 in data set [3] (Table I, read-out: EC50) came to 470 nM. The Ki in data set [7] (setting [10]) turned out to be 0.213 nM.
Turning to `CC(C)c1nc(CN(C)C(=O)N[C@H](C(=O)N[C@@H](Cc2ccccc2)C[C@H](O)[C@H](Cc2ccccc2)NC(=O)OCc2cncs2)C(C)C)cs1` [Ritonavir], the EC50 in data set [4] (Example 13, literature values) is 36 nM; in data set [4] (setting [9]) it was 36 nM.
`CC(C)(C)NC(=O)[C@@H]1C[C@@H]2CCCC[C@@H]2CN1C[C@@H](O)[C@H](Cc1ccccc1)NC(=O)[C@H](CC(N)=O)NC(=O)c1ccc2ccccc2n1` [Sequinavir]: the EC50 is 10 nM in data set [4] (Example 13, literature values) and 10 nM in data set [4] (setting [9]).
For `CC(C)CN(C[C@@H](O)[C@H](Cc1ccccc1)NC(=O)O[C@H]1CCOC1)S(=O)(=O)c1ccc(N)cc1` [VX-478], the concentration for an effect of 90% (EC90) (as a rule, the point of the concentration-response curve where the effect stands at 90%) in data set [4] (comparison table, Kim et al., 1995, read-out: EC90 (EC50 column, footnote b)) was 40 nM.
